In one assay the test system is MDA-MB-231. Nature of the assay: Antiproliferative activity against human MDA-MB-231 cells by MTT assay. Type of assay: functional, cell-based.
A short description of the next assay: cells. The conditions noted are these: Homo sapiens, MDA-MB-231, 48 h.

Description for cells: Downregulation of H3K9me2 level in human MDA-MB-231 cells measured after 48 hrs by Western blot analysis

Broadly, the EC50 is the concentration needed to bring the measured effect to its halfway point. Higher therefore signals a less potent agent. As usually defined, the IC50 is the concentration that inhibits the measured activity by half. Take `COc1cc2nc(N3CCCN(C)CC3)nc(NC3CCN(Cc4ccccc4)CC3)c2cc1OC`: the EC50 in the assay on MDA-MB-231 stood at 2700 nM. For the same molecule, the midpoint of inhibition in the assay “cells”, the IC50, lay at 500 nM.

In the case of `COc1cc2c(NC3CCN(C(C)C)CC3)nc(C3CCCCC3)nc2cc1OCCCN1CCCC1`, in the assay “cells”, the IC50 was found to be 81 nM.

(Values after ChEMBL document CHEMBL5532707, “SETDB1 as a cancer target: challenges and perspectives in drug design” (RSC Med Chem, 2024).)
